Here are results for two molecules from patent US12338214B2, “Bexarotene derivatives and their use in treating cancer” (DJ THERAPEUTICS LLC, priority 2018, dated 2025).

One assay relates to MV4;11 cells. Description: Cell count activity in MV4;11 cells. The assay is classed as cell-based, human. The following applies: 5 days, FIG. 5. How it is done: (§1) NB4 cells or MV4;11 cells were grown in RPMI, 10% fetal bovine serum and plated at a density of 25,000 cells/mL in presence or absence of compound of the disclosure (dissolved in DMSO) for 5 days. Cells were counted manually on a light microscope using a hemocytometer and Trypan blue exclusion or on the Nexcelom Cellometer Auto 2000 using Cellometer Viastain AOPI staining solution (Nexcelom CS2-0106).

In a further assay the test system is NB4 cells. Description: Cell count activity in NB4 cells. The assay is classed as cell-based, human. The following applies: 5 days, FIG. 4. As to the method: as §1

Molecules are shown by their SMILES.

As for `CC1=C(/C=C/C(C)=C/C=C/C(C)=C/C(=O)O)C(C)(C)CCC1` [ATRA, all-trans retinoic acid], the “reduction in cell counts” value with MV4;11 cells was “dose dependent reduction in cell counts”.
For `C=C(c1ccc(C(=O)O)cc1)c1cc2c(cc1C)C(C)(C)CCC2(C)C` [bexarotene], the “reduction in cell counts” value in the assay on NB4 cells is recorded as “dose dependent reduction in cell counts”.
